What was measured:
Test in all cases: relative viability (nuclei count vs DMSO), 5 days (fraction); higher = more cells survive
201T = test system: 201T
Procedure, shortened: (§1)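 Relative viability divides the nuclei count in treated wells by that in vehicle wells. Lung cancer cell lines were seeded in 1536-well plates, dosed by pin tool the next day, and fixed and stained after 5 days in one step with final 0.05% Triton X-100, 1% formaldehyde and 1 ug/ml Hoechst. Dosing was a single drug or a fixed anchor-drug dose plus five library-drug doses (not always all listed) in √10 steps, and values are medians of duplicate plates imaged at 4×.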

BEN = test system: BEN
Procedure, shortened: as §1

CAL-12T = test system: CAL-12T
Procedure, shortened: as §1

HCC-44 = test system: HCC-44
Procedure, shortened: as §1

HCC-827 = test system: HCC-827
Procedure, shortened: as §1

HOP-62 = test system: HOP-62
Procedure, shortened: as §1

LCLC-103H = test system: LCLC-103H
Procedure, shortened: as §1

LCLC-97TM1 = test system: LCLC-97TM1
Procedure, shortened: as §1

LXF-289 = test system: LXF-289
Procedure, shortened: as §1

NCI-H1395 = test system: NCI-H1395
Procedure, shortened: as §1

NCI-H1437 = test system: NCI-H1437
Procedure, shortened: as §1

NCI-H1650 = test system: NCI-H1650
Procedure, shortened: as §1

NCI-H1793 = test system: NCI-H1793
Procedure, shortened: as §1

NCI-H1944 = test system: NCI-H1944
Procedure, shortened: as §1

NCI-H2087 = test system: NCI-H2087
Procedure, shortened: as §1

NCI-H2228 = test system: NCI-H2228
Procedure, shortened: as §1

NCI-H2405 = test system: NCI-H2405
Procedure, shortened: as §1

NCI-H3122 = test system: NCI-H3122
Procedure, shortened: as §1

NCI-H322M = test system: NCI-H322M
Procedure, shortened: as §1

NCI-H647 = test system: NCI-H647
Procedure, shortened: as §1

RERF-LC-KJ = test system: RERF-LC-KJ
Procedure, shortened: as §1

SK-LU-1 = test system: SK-LU-1
Procedure, shortened: as §1

Structure (SMILES): NC(=O)Nc1cc(-c2cccc(F)c2)sc1C(=O)N[C@H]1CCCNC1 [AZD7762] + Nc1nc2[nH]cc(CCc3ccc(C(=O)N[C@@H](CCC(=O)O)C(=O)O)cc3)c2c(=O)[nH]1 [Pemetrexed] (partner 0.2 µM)
- relative viability (201T; first compound 0.01 µM): 0.34
- relative viability (201T; first compound 0.03162 µM): 0.293
- relative viability (201T; first compound 0.1 µM): 0.307
- relative viability (201T; first compound 0.3162 µM): 0.284
- relative viability (201T; first compound 1 µM): 0.296
- relative viability (BEN; first compound 0.01 µM): 0.804
- relative viability (BEN; first compound 0.03162 µM): 0.902
- relative viability (BEN; first compound 0.1 µM): 0.757
- relative viability (BEN; first compound 0.3162 µM): 0.809
- relative viability (BEN; first compound 1 µM): 0.606
- relative viability (CAL-12T; first compound 0.01 µM): 1.16
- relative viability (CAL-12T; first compound 0.03162 µM): 0.981
- relative viability (CAL-12T; first compound 0.1 µM): 1.09
- relative viability (CAL-12T; first compound 0.3162 µM): 0.612
- relative viability (CAL-12T; first compound 1 µM): 0.226
- relative viability (HCC-44; first compound 0.01 µM): 0.608
- relative viability (HCC-44; first compound 0.03162 µM): 0.548
- relative viability (HCC-44; first compound 0.1 µM): 0.534
- relative viability (HCC-44; first compound 0.3162 µM): 0.451
- relative viability (HCC-44; first compound 1 µM): 0.358
- relative viability (HCC-827; first compound 0.01 µM): 0.301
- relative viability (HCC-827; first compound 0.03162 µM): 0.257
- relative viability (HCC-827; first compound 0.1 µM): 0.211
- relative viability (HCC-827; first compound 0.3162 µM): 0.192
- relative viability (HCC-827; first compound 1 µM): 0.148
- relative viability (HOP-62; first compound 0.01 µM): 0.359
- relative viability (HOP-62; first compound 0.03162 µM): 0.318
- relative viability (HOP-62; first compound 0.1 µM): 0.264
- relative viability (HOP-62; first compound 0.3162 µM): 0.248
- relative viability (HOP-62; first compound 1 µM): 0.208
- relative viability (LCLC-103H; first compound 0.01 µM): 0.464
- relative viability (LCLC-103H; first compound 0.03162 µM): 0.498
- relative viability (LCLC-103H; first compound 0.1 µM): 0.45
- relative viability (LCLC-103H; first compound 0.3162 µM): 0.452
- relative viability (LCLC-103H; first compound 1 µM): 0.394
- relative viability (LCLC-97TM1; first compound 0.01 µM): 0.187
- relative viability (LCLC-97TM1; first compound 0.03162 µM): 0.165
- relative viability (LCLC-97TM1; first compound 0.1 µM): 0.17
- relative viability (LCLC-97TM1; first compound 0.3162 µM): 0.139
- relative viability (LCLC-97TM1; first compound 1 µM): 0.146
- relative viability (LXF-289; first compound 0.01 µM): 0.817
- relative viability (LXF-289; first compound 0.03162 µM): 0.864
- relative viability (LXF-289; first compound 0.1 µM): 0.949
- relative viability (LXF-289; first compound 0.3162 µM): 0.803
- relative viability (LXF-289; first compound 1 µM): 0.626
- relative viability (NCI-H1395; first compound 0.01 µM): 0.847
- relative viability (NCI-H1395; first compound 0.03162 µM): 0.768
- relative viability (NCI-H1395; first compound 0.1 µM): 0.641
- relative viability (NCI-H1395; first compound 0.3162 µM): 0.401
- relative viability (NCI-H1395; first compound 1 µM): 0.306
- relative viability (NCI-H1437; first compound 0.01 µM): 0.298
- relative viability (NCI-H1437; first compound 0.03162 µM): 0.261
- relative viability (NCI-H1437; first compound 0.1 µM): 0.229
- relative viability (NCI-H1437; first compound 0.3162 µM): 0.206
- relative viability (NCI-H1437; first compound 1 µM): 0.172
- relative viability (NCI-H1650; first compound 0.01 µM): 0.333
- relative viability (NCI-H1650; first compound 0.03162 µM): 0.331
- relative viability (NCI-H1650; first compound 0.1 µM): 0.296
- relative viability (NCI-H1650; first compound 0.3162 µM): 0.252
- relative viability (NCI-H1650; first compound 1 µM): 0.19
- relative viability (NCI-H1793; first compound 0.01 µM): 0.983
- relative viability (NCI-H1793; first compound 0.03162 µM): 0.956
- relative viability (NCI-H1793; first compound 0.1 µM): 0.954
- relative viability (NCI-H1793; first compound 0.3162 µM): 0.811
- relative viability (NCI-H1793; first compound 1 µM): 0.562
- relative viability (NCI-H1944; first compound 0.01 µM): 0.694
- relative viability (NCI-H1944; first compound 0.03162 µM): 0.601
- relative viability (NCI-H1944; first compound 0.1 µM): 0.54
- relative viability (NCI-H1944; first compound 0.3162 µM): 0.28
- relative viability (NCI-H1944; first compound 1 µM): 0.188
- relative viability (NCI-H2087; first compound 0.01 µM): 0.718
- relative viability (NCI-H2087; first compound 0.03162 µM): 0.654
- relative viability (NCI-H2087; first compound 0.1 µM): 0.714
- relative viability (NCI-H2087; first compound 0.3162 µM): 0.66
- relative viability (NCI-H2087; first compound 1 µM): 0.692
- relative viability (NCI-H2228; first compound 0.01 µM): 0.279
- relative viability (NCI-H2228; first compound 0.03162 µM): 0.328
- relative viability (NCI-H2228; first compound 0.1 µM): 0.293
- relative viability (NCI-H2228; first compound 0.3162 µM): 0.299
- relative viability (NCI-H2228; first compound 1 µM): 0.2
- relative viability (NCI-H2405; first compound 0.01 µM): 0.998
- relative viability (NCI-H2405; first compound 0.03162 µM): 1.25
- relative viability (NCI-H2405; first compound 0.1 µM): 0.927
- relative viability (NCI-H2405; first compound 0.3162 µM): 1
- relative viability (NCI-H2405; first compound 1 µM): 0.466
- relative viability (NCI-H3122; first compound 0.01 µM): 0.19
- relative viability (NCI-H3122; first compound 0.03162 µM): 0.188
- relative viability (NCI-H3122; first compound 0.1 µM): 0.167
- relative viability (NCI-H3122; first compound 0.3162 µM): 0.16
- relative viability (NCI-H3122; first compound 1 µM): 0.139
- relative viability (NCI-H322M; first compound 0.01 µM): 0.595
- relative viability (NCI-H322M; first compound 0.03162 µM): 0.617
- relative viability (NCI-H322M; first compound 0.1 µM): 0.571
- relative viability (NCI-H322M; first compound 0.3162 µM): 0.542
- relative viability (NCI-H322M; first compound 1 µM): 0.379
- relative viability (NCI-H647; first compound 0.01 µM): 0.146
- relative viability (NCI-H647; first compound 0.03162 µM): 0.128
- relative viability (NCI-H647; first compound 0.1 µM): 0.108
- relative viability (NCI-H647; first compound 0.3162 µM): 0.0887
- relative viability (NCI-H647; first compound 1 µM): 0.0641
- relative viability (RERF-LC-KJ; first compound 0.01 µM): 0.48
- relative viability (RERF-LC-KJ; first compound 0.03162 µM): 0.461
- relative viability (RERF-LC-KJ; first compound 0.1 µM): 0.441
- relative viability (RERF-LC-KJ; first compound 0.3162 µM): 0.399
- relative viability (RERF-LC-KJ; first compound 1 µM): 0.392
- relative viability (SK-LU-1; first compound 0.01 µM): 1.14
- relative viability (SK-LU-1; first compound 0.03162 µM): 0.776
- relative viability (SK-LU-1; first compound 0.1 µM): 0.698
- relative viability (SK-LU-1; first compound 0.3162 µM): 0.299
- relative viability (SK-LU-1; first compound 1 µM): 0.238

From the supplement of paper PMC10307832
